The text below walks through data of patent US5436254A, “Carbostyril derivatives” (Otsuka Pharmaceutical Company, Ltd., priority 1989, dated 1995).

Sequence of V1 receptor (P30560 whole entry): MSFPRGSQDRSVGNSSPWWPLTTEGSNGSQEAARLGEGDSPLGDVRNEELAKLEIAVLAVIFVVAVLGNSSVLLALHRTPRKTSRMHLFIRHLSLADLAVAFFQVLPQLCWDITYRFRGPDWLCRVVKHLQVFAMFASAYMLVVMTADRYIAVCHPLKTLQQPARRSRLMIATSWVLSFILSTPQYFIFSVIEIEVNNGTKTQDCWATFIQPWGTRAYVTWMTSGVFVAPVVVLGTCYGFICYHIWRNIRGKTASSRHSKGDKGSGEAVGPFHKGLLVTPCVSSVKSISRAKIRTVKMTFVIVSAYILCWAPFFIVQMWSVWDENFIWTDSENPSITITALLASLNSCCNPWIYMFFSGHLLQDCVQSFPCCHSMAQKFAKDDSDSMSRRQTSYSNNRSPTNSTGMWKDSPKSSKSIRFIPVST

One test addresses V1 receptor (Rattus norvegicus, UniProt P30560). The test can be described thus: biochemical.
Conditions: not given
In kind it is binding.
In general, IC50 refers to the concentration that gives 50% inhibition. On to `O=C(CCCCCOc1ccc(C(=O)N2CCC(N3C(=O)CCc4ccccc43)CC2)cc1)c1nc2cnccc2[nH]1` [Example 154, 1-{1-[4-(5-(Imidazo[4,5-c]pyridine-2-yl)carbonylpentyloxy)benzoyl]-4-piperidinyl}-3,4-dihydrocarbostyril], for which inhibition was half-maximal at 200 nM (IC50).

`CCOc1ccc(C(=O)N2CCC(N3C(=O)CCc4ccc(F)cc43)CC2)c(O)c1` [Example 155, 1-[1-(2-Hydroxy-4-ethoxybenzoyl)-4-piperidinyl]-7-fluoro-3,4-dihydrocarbostyril] yielded an IC50 of 57 nM.

With `O=C(c1ccc(OCCCCN2CCN(Cc3ccccc3)CC2)cc1)N1CCC(N2C(=O)CCc3ccccc32)CC1` [Example 156, 1-{1-[4-[(4-Benzyl-1-piperazinyl)butoxy]benzoyl]-4-piperidinyl}-3,4-dihydrocarbostyril], the half-inhibitory concentration (IC50) turned out to be 180 nM.

`O=C(c1ccc(OCCCCN2CCNCC2)cc1)N1CCC(N2C(=O)CCc3ccccc32)CC1` [Example 157, 1-{1-[4-[4-(1-Piperazinyl)butoxy]benzoyl]-4-piperidinyl}-3,4-dihydrocarbostyril.dioxalate] came in with an IC50 of 90 nM.

For `CN1CCN(CCCCOc2ccc(C(=O)N3CCC(N4C(=O)CCc5ccccc54)CC3)cc2)CC1` [Example 158, 1-{1-[4-[4-(4-Methyl-1-piperazinyl)butoxy]benzoyl]-4-piperidinyl}-3,4-dihydrocarbostyril.dioxalate], it took 100 nM to reach half-maximal inhibition (IC50).

As to `CS(=O)(=O)N1CCN(CCCCOc2ccc(C(=O)N3CCC(N4C(=O)CCc5ccccc54)CC3)cc2)CC1` [Example 159, 1-{1-[4-[4-(4-Methylsulfonyl-1-piperazinyl)butoxy]benzoyl]-4-piperidinyl}-3,4-dihydrocarbostyril], half-maximal inhibition (IC50) was put at 98 nM.

In the case of `COC(=O)N1CCN(CCCCOc2ccc(C(=O)N3CCC(N4C(=O)CCc5ccccc54)CC3)cc2)CC1` [Example 160, 1-{1-[4-[4-(4-Methoxycarbonyl-1-piperazinyl)butoxy]benzoyl]-4-piperidinyl}-3,4-dihydrocarbostyril], half-maximal inhibition (IC50) required 220 nM.

`O=C(OCCCCOc1ccc(C(=O)N2CCC(N3C(=O)CCc4ccccc43)CC2)cc1)N1CCN(Cc2ccccc2)CC1` [Example 161, 1-{1-[4-[4-(4-Benzyl-1-piperazinyl)carbonyloxybutoxy]benzoyl]-4-piperidinyl}-3,4-dihydrocarbostyril] displayed a half-inhibitory concentration (IC50) of 450 nM.

`CC(=O)N1CCN(CCCCOc2ccc(C(=O)N3CCC(N4C(=O)CCc5ccccc54)CC3)cc2)CC1` [Example 162, 1-{1-[4-[4-(4-Acetyl-1-piperazinyl)butoxy]benzoyl]-4-piperidinyl}-3,4-dihydrocarbostyril] returned an IC50 of 110 nM.

In turn, `O=C(OCCCCOc1ccc(C(=O)N2CCC(N3C(=O)CCc4ccccc43)CC2)cc1)N1CCNCC1` [Example 163, 1-{1-[4-[4-(1-Piperazinyl)carbonyloxybutoxy]benzoyl]-4-piperidinyl}-3,4-dihydrocarbostyril] displayed an IC50 of 75 nM.

`COC(=O)[C@H](CCCCNC(=O)OCc1ccccc1)NC(=O)CCCCCOc1ccc(C(=O)N2CCC(N3C(=O)CCc4ccccc43)CC2)cc1` [Example 165, 1-{1-[4-{5-[(5-Benzyloxycarbonylamino)-1-(S)-methoxycarbonyl]pentylaminocarbonylpentyloxy}benzoyl]-4-piperidinyl}-3,4-dihydrocarbostyril]: the midpoint of inhibition, the IC50, lay at 540 nM.

`COC(=O)[C@H](CCCCN)NC(=O)CCCCCOc1ccc(C(=O)N2CCC(N3C(=O)CCc4ccccc43)CC2)cc1` [Example 166, 1-{1-[4-{5-[5-Amino-1-(S)-methoxycarbonyl]pentylaminocarbonylpentyloxy}benzoyl]-4-piperidinyl}-3,4-dihydrocarbostyril] gave an IC50 of 44 nM.

As for `CC(C)CCNCCCOc1ccc(C(=O)N2CCC(N3C(=O)CCc4ccccc43)CC2)cc1` [Example 167, 1-{1-[4-(3-Isopentylaminopropoxy)benzoyl]-4-piperidinyl}-3,4-dihydrocarbostyril], inhibition was half-maximal at 280 nM (IC50).

Take `CCOC(=O)NCCCOc1ccc(C(=O)N2CCC(N3C(=O)CCc4ccccc43)CC2)cc1` [Example 168, 1-{1-[4-(3-Ethoxycarbonylaminopropoxy)benzoyl]-4-piperidinyl}-3,4-dihydrocarbostyril]: the IC50 amounted to 190 nM.

`O=C(c1ccc(OCCCNS(=O)(=O)c2ccccc2)cc1)N1CCC(N2C(=O)CCc3ccccc32)CC1` [Example 169, 1-{1-[4-(3-Phenylsulfonylaminopropoxy)benzoyl]-4-piperidinyl}-3,4-dihydrocarbostyril] registered an IC50 of 170 nM.

`O=C(c1ccc(OCCCCC(O)CNCc2ccccc2)cc1)N1CCC(N2C(=O)CCc3ccccc32)CC1` (centres unmarked) [Example 170, 1-{1-[4-(5-Hydroxy-6-benzylaminohexyloxy)benzoyl]-4-piperidinyl}-3,4-dihydrocarbostyril]: the half-maximal inhibitory concentration (IC50) came out at 39 nM.

`NCC(O)CCCCOc1ccc(C(=O)N2CCC(N3C(=O)CCc4ccccc43)CC2)cc1` (centres unmarked) [Example 171, 1-{1-[4-(5-Hydroxy-6-aminohexyloxy)benzoyl]-4-piperidinyl}-3,4-dihydrocarbostyril]: inhibition was half-maximal at 240 nM (IC50).

For `O=C(c1ccc(OCCCCC(O)CN2CCN(Cc3ccccc3)CC2)cc1)N1CCC(N2C(=O)CCc3ccccc32)CC1` (centres unmarked) [Example 172, 1-(1-[4-(5-Hydroxy-6-(4-benzyl-1-piperazinyl)hexyloxy]benzoyl]-4-piperidinyl)-3,4-dihydrocarbostyril.dioxalate], the 50% inhibitory concentration (IC50) was 43 nM.

In turn, `O=C(c1ccc(OCCCCC(O)CN2CCNCC2)cc1)N1CCC(N2C(=O)CCc3ccccc32)CC1` (centres unmarked) [Example 173, 1-{1-[4-(5-Hydroxy-6-(1-piperazinyl)hexyloxy]benzoyl]-4-piperidinyl}-3,4-dihydrocarbostyril.dioxalate] yielded an IC50 of 39 nM.

Consider `Cc1ccc(S(=O)(=O)NCCCOc2ccc(C(=O)N3CCC(N4C(=O)CCc5ccccc54)CC3)cc2)cc1` [Example 174, 1-{1-[4-(3-p-Toluenesulfonylaminopropoxy)benzoyl]-4-piperidinyl}-3,4-dihydrocarbostyril], for which the 50% inhibitory concentration (IC50) was 490 nM.

The compound `CC(=O)NCC(CCCCOc1ccc(C(=O)N2CCC(N3C(=O)CCc4ccccc43)CC2)cc1)OC(C)=O` (centres unmarked) [Example 176, 1-{1-[4-(5-Acetoxy-6-acetylaminohexyloxy)benzoyl]-4-piperidinyl}-3,4-dihydrocarbostyril] had a half-inhibitory concentration (IC50) of 130 nM.

Compound `CC(=O)NCC(O)CCCCOc1ccc(C(=O)N2CCC(N3C(=O)CCc4ccccc43)CC2)cc1` (centres unmarked) [Example 177, 1-{1-[4-(5-Hydroxy-6-acetylaminohexyloxy)-benzoyl]-4-piperidinyl}-3,4-dihydrocarbostyril] returned an IC50 of 130 nM.

Compound `CN1CCN(CC(O)CCCCOc2ccc(C(=O)N3CCC(N4C(=O)CCc5ccccc54)CC3)cc2)CC1` (centres unmarked) [Example 178, 1-{1-[4-(5-Hydroxy-6-(4-methyl-1-piperazinyl)hexyloxy]benzoyl]-4-piperidinyl}-3,4-dihydrocarbostyril] registered an IC50 of 45 nM.

`CN(C)CCCCc1ccc(C(=O)N2CCC(N3C(=O)CCc4ccccc43)CC2)cc1` [Example 180, 1-{1-[4-(4-Dimethylaminobutyl)benzoyl]-4-piperidinyl}-3,4-dihydrocarbostyril] showed a half-inhibitory concentration (IC50) of 400 nM.

`CC(=O)NCC(=O)NCCCOc1ccc(C(=O)N2CCC(N3C(=O)CCc4ccccc43)CC2)cc1` [Example 181, 1-{1-[4-(3-Acetylaminoacetylaminopropoxy)benzoyl]-4-piperidinyl}-3,4-dihydrocarbostyril] returned an IC50 of 230 nM.

For `CCCC(NC(C)=O)C(=O)NCCCOc1ccc(C(=O)N2CCC(N3C(=O)CCc4ccccc43)CC2)cc1` (centres unmarked) [Example 182, 1-{1-[4-(3-[2-(Acetylamino)valerylamino]propoxy)benzoyl]-4-piperidinyl}-3,4-dihydrocarbostyril], the half-inhibitory concentration (IC50) amounted to 120 nM.

`CCN(CC)CC(O)CCCCCCOc1ccc(C(=O)N2CCC(N3C(=O)CCc4ccccc43)CC2)cc1` (centres unmarked) [Example 184, 1-{1-[4-(7-Hydroxy-8-diethylaminooctyloxy)benzoyl]-4-piperidinyl}-3,4-dihydrocarbostyril] returned a half-maximal inhibitory concentration (IC50) of 39 nM.

For the compound `CCN(CC)CC(O)CCCCOc1ccc(C(=O)N2CCC(N3C(=O)CCc4ccc(F)cc43)CC2)c(OC)c1` (centres unmarked) [Example 185, 7-Fluoro-1-{1-[4-(5-Hydroxy-6-diethylaminohexyloxy)-2-methoxybenzoyl]-4-piperidinyl}-3,4-dihydrocarbostyril], half-maximal inhibition (IC50) was put at 10 nM.

Compound `O=C(c1ccc(OCCCC(O)CN2CCCC2)cc1)N1CCC(N2C(=O)CCc3ccccc32)CC1` (centres unmarked) [Example 186, 1-{1-[4-(4-Hydroxy-5-(1-pyrrolidinyl)pentyloxy)benzoyl]-4-piperidinyl}-3,4-dihydrocarbostyril] showed a half-maximal inhibitory concentration (IC50) of 63 nM.

In turn, `CN(C)CC(O)CCCCCCOc1ccc(C(=O)N2CCC(N3C(=O)CCc4ccccc43)CC2)cc1` (centres unmarked) [Example 187, 1-{1-[4-(7-Hydroxy-8-dimethylaminooctyloxy)benzoyl]-4-piperidinyl}-3,4-dihydrocarbostyril] yielded an IC50 of 40 nM.

The compound `O=C(c1ccc(OCCCC(O)CN2CCCCC2)cc1)N1CCC(N2C(=O)CCc3ccccc32)CC1` (centres unmarked) [Example 188] had an IC50 of 68 nM.

The compound `O=C(c1ccc(OCCCC(O)CN2CCOCC2)cc1)N1CCC(N2C(=O)CCc3ccccc32)CC1` (centres unmarked) [Example 189, 1-{1-[4-(4-Hydroxy-5-morpholinopentyloxy)benzoyl]-4-piperidinyl}-3,4-dihydrocarbostyril] displayed an IC50 of 130 nM.

Compound `CCN(CC)CC(O)COCCCCCOc1ccc(C(=O)N2CCC(N3C(=O)CCc4ccccc43)CC2)cc1` (centres unmarked) [Example 190, 1-{1-[4-(5-(2-Hydroxy-3-diethylaminopropoxy)pentyloxy)benzoyl]-4-piperidinyl}-3,4-dihydrocarbostyril] yielded a concentration for half-maximal inhibition (IC50) of 33 nM.

Take `CN(C)CC(O)COCCCCCOc1ccc(C(=O)N2CCC(N3C(=O)CCc4ccccc43)CC2)cc1` (centres unmarked) [Example 191, 1-{1-[4-(5-(2-Hydroxy-3-dimethylaminopropoxy)pentyloxy)benzoyl]-4-piperidinyl}-3,4-dihydrocarbostyril]: inhibition was half-maximal at 34 nM (IC50).

The same test, now with this note: read-out: IC50.
As for `CCOc1ccc(C(=O)N2CCC(n3c(=O)ccc4c(F)cc(F)cc43)CC2)c(OC)c1` [Example 175, 5,7-Difluoro-1-[1-(2-Methoxy-4-ethoxybenzoyl)-4-piperidinyl]carbostyril], the IC50 stood at 320 nM.
